From patent US11685734B2, “ATM kinase inhibitors and compositions and methods of use thereof” (CHDI Foundation, Inc., priority 2019, dated 2023)

Assays:
[1] = biological target: Recombinant, full length human FLAG-tagged ATM (Homo sapiens (Human), UniProt Q13315); assay: ATM ELISA for p53 S15 phosphorylation; type: biochemical; settings: 0.75 nM ATM, 25 nM p53, 10 μM ATP, 30 min at 20° C.; read-out: ATM BIO IC50
Outline: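 ELISA of p53 S15 phosphorylation by 0.75 nM full-length FLAG-ATM, with 25 nM myc-p53 and 10 μM ATP in HEPES pH 7.5 with Mg/Mn, 30 min at 20° C. Reactions were EDTA-stopped, captured on anti-myc and detected with anti-pS15/HRP-TMB at 450 nm.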

cellular ATM activity = cellular ATM activity (Homo sapiens (Human), UniProt Q13315); assay: Inhibition of cellular ATM activity: etoposide-stimulated KAP1 phosphorylation in U20S cells; type: cell-based; settings: 100 μM etoposide, 60 min, read-out: ATM CELL IC50
cellular ATM activity, sequence (Q13315 whole entry): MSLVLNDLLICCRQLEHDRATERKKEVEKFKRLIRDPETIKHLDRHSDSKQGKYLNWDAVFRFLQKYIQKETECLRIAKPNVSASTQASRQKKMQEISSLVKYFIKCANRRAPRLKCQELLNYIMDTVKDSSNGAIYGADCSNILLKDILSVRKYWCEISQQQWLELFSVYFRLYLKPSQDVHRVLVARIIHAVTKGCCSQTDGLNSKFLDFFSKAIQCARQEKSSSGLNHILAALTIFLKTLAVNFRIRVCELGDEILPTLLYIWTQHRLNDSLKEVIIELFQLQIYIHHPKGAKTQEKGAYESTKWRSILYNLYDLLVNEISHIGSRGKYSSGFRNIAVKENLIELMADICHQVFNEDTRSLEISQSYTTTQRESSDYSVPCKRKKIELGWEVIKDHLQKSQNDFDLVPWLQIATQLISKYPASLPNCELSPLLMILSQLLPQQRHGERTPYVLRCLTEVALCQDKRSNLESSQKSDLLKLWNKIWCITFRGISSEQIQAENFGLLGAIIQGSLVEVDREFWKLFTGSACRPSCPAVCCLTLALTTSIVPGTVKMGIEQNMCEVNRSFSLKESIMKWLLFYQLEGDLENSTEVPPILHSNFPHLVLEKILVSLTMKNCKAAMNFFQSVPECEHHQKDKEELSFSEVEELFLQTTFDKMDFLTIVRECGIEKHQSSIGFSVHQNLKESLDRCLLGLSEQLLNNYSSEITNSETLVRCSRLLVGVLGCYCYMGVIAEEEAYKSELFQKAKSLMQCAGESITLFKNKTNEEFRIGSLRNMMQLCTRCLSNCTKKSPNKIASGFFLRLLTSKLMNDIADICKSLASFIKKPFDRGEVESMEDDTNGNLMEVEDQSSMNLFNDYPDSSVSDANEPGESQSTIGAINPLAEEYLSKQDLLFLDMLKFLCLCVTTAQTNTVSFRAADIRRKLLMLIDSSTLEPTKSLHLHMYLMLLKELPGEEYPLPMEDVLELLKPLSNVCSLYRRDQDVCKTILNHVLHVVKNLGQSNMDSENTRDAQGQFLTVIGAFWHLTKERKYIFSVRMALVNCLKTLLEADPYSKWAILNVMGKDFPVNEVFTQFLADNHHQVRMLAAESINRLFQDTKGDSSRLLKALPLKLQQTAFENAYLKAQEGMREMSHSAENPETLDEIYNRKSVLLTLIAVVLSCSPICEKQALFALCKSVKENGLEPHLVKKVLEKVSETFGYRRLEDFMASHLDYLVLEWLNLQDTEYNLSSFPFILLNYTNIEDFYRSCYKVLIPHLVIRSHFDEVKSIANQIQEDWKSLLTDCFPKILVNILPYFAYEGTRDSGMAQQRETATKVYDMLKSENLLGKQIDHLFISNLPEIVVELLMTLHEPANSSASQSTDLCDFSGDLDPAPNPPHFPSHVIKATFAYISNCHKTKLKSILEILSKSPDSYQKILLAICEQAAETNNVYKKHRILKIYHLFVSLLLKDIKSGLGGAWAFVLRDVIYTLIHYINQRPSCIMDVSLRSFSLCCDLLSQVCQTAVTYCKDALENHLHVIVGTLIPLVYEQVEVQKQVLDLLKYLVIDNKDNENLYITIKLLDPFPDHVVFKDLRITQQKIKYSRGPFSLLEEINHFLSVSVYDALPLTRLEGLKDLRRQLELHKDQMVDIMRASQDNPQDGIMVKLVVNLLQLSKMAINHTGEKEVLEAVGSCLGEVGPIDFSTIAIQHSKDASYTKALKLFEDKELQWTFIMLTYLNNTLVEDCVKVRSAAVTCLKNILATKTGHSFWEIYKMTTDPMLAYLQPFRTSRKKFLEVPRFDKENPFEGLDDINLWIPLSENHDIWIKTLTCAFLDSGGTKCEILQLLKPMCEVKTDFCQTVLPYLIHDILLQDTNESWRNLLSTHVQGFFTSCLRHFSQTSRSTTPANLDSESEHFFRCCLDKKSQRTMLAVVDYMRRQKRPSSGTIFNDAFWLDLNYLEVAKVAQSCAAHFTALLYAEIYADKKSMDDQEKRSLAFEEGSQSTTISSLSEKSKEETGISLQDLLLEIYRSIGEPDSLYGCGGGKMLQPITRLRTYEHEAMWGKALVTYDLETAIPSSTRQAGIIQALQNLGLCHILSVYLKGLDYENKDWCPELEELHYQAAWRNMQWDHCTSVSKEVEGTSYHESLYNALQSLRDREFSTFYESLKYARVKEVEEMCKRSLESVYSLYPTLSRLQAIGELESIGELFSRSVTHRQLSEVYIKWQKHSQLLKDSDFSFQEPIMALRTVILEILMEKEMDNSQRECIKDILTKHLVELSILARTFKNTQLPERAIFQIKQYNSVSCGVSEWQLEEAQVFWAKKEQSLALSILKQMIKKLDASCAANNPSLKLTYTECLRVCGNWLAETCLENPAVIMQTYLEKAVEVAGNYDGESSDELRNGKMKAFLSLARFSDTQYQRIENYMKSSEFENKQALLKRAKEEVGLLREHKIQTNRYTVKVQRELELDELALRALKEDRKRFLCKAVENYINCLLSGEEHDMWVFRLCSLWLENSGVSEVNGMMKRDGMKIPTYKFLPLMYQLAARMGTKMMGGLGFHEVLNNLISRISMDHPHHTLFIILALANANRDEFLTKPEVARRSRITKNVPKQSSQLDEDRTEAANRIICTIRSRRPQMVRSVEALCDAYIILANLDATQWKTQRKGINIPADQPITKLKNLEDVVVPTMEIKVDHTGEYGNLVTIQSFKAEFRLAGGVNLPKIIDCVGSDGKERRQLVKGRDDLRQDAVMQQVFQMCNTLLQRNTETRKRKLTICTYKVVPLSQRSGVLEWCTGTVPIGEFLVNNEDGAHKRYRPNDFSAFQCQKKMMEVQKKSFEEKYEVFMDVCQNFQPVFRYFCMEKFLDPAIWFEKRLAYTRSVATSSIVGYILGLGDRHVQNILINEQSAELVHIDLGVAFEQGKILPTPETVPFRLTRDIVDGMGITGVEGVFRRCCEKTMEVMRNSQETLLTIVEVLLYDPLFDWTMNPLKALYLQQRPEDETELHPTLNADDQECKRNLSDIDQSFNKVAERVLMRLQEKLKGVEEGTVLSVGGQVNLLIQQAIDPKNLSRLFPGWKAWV

Recombinant, full length human FLAG-tagged ATM, sequence (Q13315 whole entry): as above

Structure (SMILES): O=c1cc(N2CCOCC2)cc(N2C[C@H]3CCC[C@H]3[C@@H]2Cc2ccccc2)[nH]1 [Example 123]
- IC50 [1]: 21.2 nM
- IC50 (cellular ATM activity): 861 nM

Structure (SMILES): O=c1cc(N2CCOCC2)nc(N2CC3(CC3)C[C@@H]2Cc2ccccc2)[nH]1 [Example 262, (S)-2-(6-benzyl-5-azaspiro[2.4]heptan-5-yl)-6-morpholinopyrimidin-4(3H)-one]
- IC50 [1]: 9.8 nM
- IC50 (cellular ATM activity): 282 nM

Structure (SMILES): O=c1cc(N2CCOCC2)cc(N2C[C@@H]3CCC[C@@H]3[C@@H]2Cc2ccccc2)[nH]1 [Example 124]
- IC50 [1]: 3.3 nM
- IC50 (cellular ATM activity): 248 nM

Structure (SMILES): C[C@@H]1CN(c2cc(=O)[nH]c(N3CCCCC[C@@H]3Cc3ccccc3)n2)C[C@@H](C)O1 [Example 349, 2-((R)-2-benzylazepan-1-yl)-6-((2R,6R)-2,6-dimethylmorpholino)pyrimidin-4(3H)-one]
- IC50 [1]: 7.5 nM
- IC50 (cellular ATM activity): 345 nM

Structure (SMILES): COc1ccccc1CC1CC(F)(F)CCCN1c1nc(N2CCOCC2)cc(=O)[nH]1 (stereo not shown) [Example 239]
- IC50 [1]: 36.5 nM
- IC50 (cellular ATM activity): 2020 nM

Structure (SMILES): O=c1cc(N2CCOCC2)cc(N2CCCCC[C@@H]2Cc2ccccn2)[nH]1 [Example 33, (R)-4-morpholino-6-(2-(pyridin-2-ylmethyl)azepan-1-yl)pyridin-2(1H)-one]
- IC50 [1]: 92.4 nM
- IC50 (cellular ATM activity): 1780 nM

Structure (SMILES): O=c1cc(N2CCOCC2)nc(N2CCCC2Cn2cnc3ccccc32)[nH]1 (stereo not shown) [Example 192]
- IC50 [1]: 30 nM
- IC50 (cellular ATM activity): 1340 nM

Structure (SMILES): O=c1cc(N2CCOCC2)cc(N2CCC(F)(F)[C@@H]2Cc2ccccc2)[nH]1 [Example 98, (S)-6-(2-benzyl-3,3-difluoropyrrolidin-1-yl)-4-morpholinopyridin-2(1H)-one]
- IC50 [1]: 38.4 nM
- IC50 (cellular ATM activity): 925 nM

Structure (SMILES): CC1C[C@H](Cc2ccccc2)N(c2nc(N3CCO[C@H](C)C3)cc(=O)[nH]2)C1 (single isomer, unassigned) [Example 320]
- IC50 [1]: 90.9 nM
- IC50 (cellular ATM activity): 1680 nM

Structure (SMILES): Cc1cc(C[C@H]2CCCN2c2nc(N3CCO[C@H](C)C3)cc(=O)[nH]2)cc(C)n1 [Example 277, 2-[(2R)-2-[(2,6-dimethyl-4-pyridyl)methyl]pyrrolidin-1-yl]-4-[(2R)-2-methylmorpholin-4-yl]-1H-pyrimidin-6-one]
- IC50 [1]: 57 nM
- IC50 (cellular ATM activity): 417 nM

Structure (SMILES): O=c1cc(N2CCOCC2)nc(N2CCCCC[C@@H]2Cc2ccccc2Cl)[nH]1 [Example 205]
- IC50 [1]: 39.6 nM
- IC50 (cellular ATM activity): 797 nM

Structure (SMILES): O=c1cc(N2CCOCC2)cc(N2CCCCC[C@@H]2Cc2cccc3c2OCC3)[nH]1 [Example 57, (R)-6-(2-((2,3-dihydrobenzofuran-7-yl)methyl)azepan-1-yl)-4-morpholinopyridin-2(1H)-one]
- IC50 [1]: 18 nM
- IC50 (cellular ATM activity): 292 nM

Structure (SMILES): Cc1cc(C[C@H]2CCCN2c2nc(N3CCOCC3)cc(=O)[nH]2)cc(C)n1 [Example 188]
- IC50 [1]: 28.7 nM
- IC50 (cellular ATM activity): 1060 nM

Structure (SMILES): COc1c(F)cccc1C[C@H]1CCCCCN1c1nc(N2CCOCC2)cc(=O)[nH]1 [Example 231]
- IC50 [1]: 84 nM
- IC50 (cellular ATM activity): 1090 nM

Structure (SMILES): C[C@@H]1CN(c2cc(=O)[nH]c(N3CCC[C@@H]3Cc3ccccc3)n2)CCO1 [Example 271, 2-((R)-2-benzylpyrrolidin-1-yl)-6-((R)-2-methylmorpholino)pyrimidin-4(3H)-one]
- IC50 [1]: 24.1 nM
- IC50 (cellular ATM activity): 2140 nM

Structure (SMILES): O=c1cc(N2CCOCC2)nc(N2C[C@H]3C[C@H]3[C@@H]2Cc2ccccc2)[nH]1 [Example 213]
- IC50 [1]: 1.1 nM
- IC50 (cellular ATM activity): 134 nM

Structure (SMILES): C[C@H]1CCCN(c2nc(N3CCOCC3)cc(=O)[nH]2)[C@@H](Cc2ccccc2)C1 [Example 233]
- IC50 [1]: 1.2 nM
- IC50 (cellular ATM activity): 327 nM

Structure (SMILES): CO[C@@H]1CCN(c2cc(N3CCOCC3)cc(=O)[nH]2)[C@H]1Cc1ccccc1 [Example 88, 6-((2S,3R)-2-benzyl-3-methoxypyrrolidin-1-yl)-4-morpholinopyridin-2(1H)-one]
- IC50 [1]: 53 nM
- IC50 (cellular ATM activity): 1660 nM

Structure (SMILES): O=c1cc(N2CCOCC2)cc(N2CCCCC[C@@H]2Cc2ccccc2F)[nH]1 [Example 78, (R)-6-(2-(2-fluorobenzyl)azepan-1-yl)-4-morpholinopyridin-2(1H)-one]
- IC50 [1]: 10.8 nM
- IC50 (cellular ATM activity): 318 nM

Structure (SMILES): COc1ccccc1C[C@H]1CCCN1c1cc(N2CCOCC2)cc(=O)[nH]1 [Example 7, (R)-6-(2-(2-methoxybenzyl)pyrrolidin-1-yl)-4-morpholinopyridin-2(1H)-one]
- IC50 [1]: 44.6 nM
- IC50 (cellular ATM activity): 1020 nM

Structure (SMILES): C[C@H]1CCCN(c2nc(N3CCOCC3)cc(=O)[nH]2)[C@@H](Cc2ccc(F)cc2)C1 [Example 235]
- IC50 [1]: 5.3 nM
- IC50 (cellular ATM activity): 436 nM

Structure (SMILES): CC(C)(c1ccccc1)[C@H]1CCCN1c1nc(N2CCOCC2)cc(=O)[nH]1 [Example 196]
- IC50 [1]: 46.9 nM
- IC50 (cellular ATM activity): 975 nM

Structure (SMILES): O=c1cc(N2CCOCC2)cc(N2C[C@H]3CC[C@H](C3)[C@@H]2Cc2ccccc2)[nH]1 [Example 135]
- IC50 [1]: 8.7 nM
- IC50 (cellular ATM activity): 178 nM

Structure (SMILES): COC[C@@H](C)Oc1cccc(C[C@H]2CCCN2c2cc(N3CCOCC3)cc(=O)[nH]2)c1 [Example 148, 6-((R)-2-(3-(((R)-1-methoxypropan-2-yl)oxy)benzyl)pyrrolidin-1-yl)-4-morpholinopyridin-2(1H)-one]
- IC50 [1]: 41.8 nM
- IC50 (cellular ATM activity): 1170 nM

Structure (SMILES): O=c1cc(N2CCOCC2)nc(N2CCC(F)(F)[C@@H]2Cc2ccccc2)[nH]1 [Example 253, (S)-2-(2-benzyl-3,3-difluoropyrrolidin-1-yl)-6-morpholinopyrimidin-4(3H)-one]
- IC50 [1]: 11.3 nM
- IC50 (cellular ATM activity): 434 nM

Structure (SMILES): COc1ccccc1C[C@H]1[C@H]2C[C@H]2CN1c1cc(N2CCOCC2)cc(=O)[nH]1 [Example 128]
- IC50 [1]: 14.7 nM
- IC50 (cellular ATM activity): 711 nM
